How the values were obtained:
[1] = Antioxidant activity, pholasin ABEL chemiluminescence test, hydroxyl radicals; type: biochemical
Description: (§1) To determine the capacity of Goldenrod for trapping free radicals (hydroxyls, halogenated derivatives, peroxynitrites and superoxide radicals), i.e. its antioxidant capacity, chemiluminescence tests dependent on pholasin ABEL®1 were used (Knight Scientific Limited) according to the manufacturer's instructions. Briefly, various concentrations of ingredients were incubated with pholasin, a well known photoprotein that emits light when it binds to free radicals. D-Mannitol, albumin, vitamin E and L-ascorbic acid were used as positive controls for determining the capacity of the extract for trapping hydroxyl radicals, halogenated derivatives, peroxynitrites and superoxides, respectively.
All the determinations were repeated 5 times and the mean values were determined. The antioxidant capacity of the ingredient is expressed as the percentage reduction of the luminescence peak of Pholasin observed during the assay in the presence and in the absence of the active ingredient ±SD, with the untreated control represented at 0%.

[2] = biological target: T1, MMP9 (Homo sapiens, UniProt P14780); experiment: MMP9 activity by fluorometric assay; type: biochemical; conditions: 5 mM; percentage activity relative to untreated control (100%)
T1 construct: purchased Biomol SE-244
Description: (§2) To evaluate the effect of Goldenrod on the activity of MMP3 and MMP9, the enzymes (Biomol SE-109 and SE-244, respectively) were incubated with different concentrations of Goldenrod, each concentration in quintuplicate. The enzymatic reaction was induced by adding the fluorescent substrate specific to each MMP enzyme, dissolved in DMSO (Bachem H-2300, M-2055). The enzymatic reaction was monitored by spectrophotometry for one hour and the fluorescence was measured after excitation/emission at wavelengths of 360/460 nm for MMP3, or 320/405 nm for MMP9. The results are expressed as the mean of the replicates ±SD and are shown in […] activity of the MMPs relative to the untreated control, which represents 100%. As control, EDTA was used for inhibiting the activity of the MMPs.

[3] = biological target: T2, MMP3 (Homo sapiens, UniProt P08254); experiment: MMP3 activity by fluorometric assay; type: biochemical; conditions: 5 mM; percentage activity relative to untreated control (100%)
T2 construct: purchased Biomol SE-109
Description: as §2

[4] = Antioxidant activity, pholasin ABEL chemiluminescence test, superoxides; type: biochemical
Description: as §1, with “respectively. […] The antioxidant capacity of the ingredient is expressed as the percentage reduction of the luminescence peak of Pholasin observed during the assay in the presence and in the absence of the active ingredient ±SD, with the untreated control represented at 0%.” for “respectively.”

[5] = test system: Primary human keratinocytes (KC); experiment: Primary human keratinocytes (KC) under Paraquat stress: cell counts and qPCR of MMP1, p16INK4a; type: cell-based; conditions: for Mean number of cells counted, corrected for the cell division factor: 37500 cells seeded on day 0
Description: Primary human keratinocytes derived from neonatal foreskin of individual donors (KC) were purchased from CellSystems (Troisdorf, Germany) and cultured in a KC growth medium (KGM, Clonetics, Gaithersburg, USA) supplemented with 0.1 ng/ml of recombinant human EGF, 5 μg/ml insulin, 0.5 μg/ml of hydrocortisone, 0.4% of bovine pituitary extract, 50 μg/ml of gentamicin and 50 ng/ml of amphotericin B. The RNA was isolated using the RNeasy 96 system ([…]), and 900 ng of total RNA was reverse-transcribed with the iScript cDNA Synthesis Kit (Biorad). qPCR was performed using the LightCycler 480 and the LightCycler 480 SYBR Green I Master (Roche, Basle, Switzerland). Expression of the target genes was normalized relative to expression of β-2 microglobulin. The sequences of the primers are as follows (5′-3′): B2Mf […] (SEQ ID NO:11); B2Mr: […] (SEQ ID NO:12);
The cells are seeded for the stress experiments on day 0 at 1500 cells/cm^2 and treated on days 2, 5 and 6 with Paraquat (PQ) (80 μm) for 24 hours. Treatment with Goldenrod was carried out on days 1 and 4 on untreated cells or cells treated with Paraquat.

T2 sequence (P08254 100-272 limits assumed): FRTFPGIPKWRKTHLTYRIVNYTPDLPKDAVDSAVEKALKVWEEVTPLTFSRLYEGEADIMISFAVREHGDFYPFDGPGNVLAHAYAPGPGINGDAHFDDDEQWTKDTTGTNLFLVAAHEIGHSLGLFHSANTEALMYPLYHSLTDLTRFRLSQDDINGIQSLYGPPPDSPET
T1 sequence (P14780 107-444 limits assumed): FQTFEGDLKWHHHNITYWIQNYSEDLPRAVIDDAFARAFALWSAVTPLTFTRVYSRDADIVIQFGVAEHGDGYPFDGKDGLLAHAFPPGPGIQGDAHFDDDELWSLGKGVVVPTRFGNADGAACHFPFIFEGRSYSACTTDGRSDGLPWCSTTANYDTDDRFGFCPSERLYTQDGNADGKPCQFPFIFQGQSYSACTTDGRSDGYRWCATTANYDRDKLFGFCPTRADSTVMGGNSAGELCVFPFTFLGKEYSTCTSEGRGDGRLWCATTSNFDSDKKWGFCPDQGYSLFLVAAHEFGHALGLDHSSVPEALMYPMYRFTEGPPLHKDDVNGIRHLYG

Q: With `OC[C@@H](O)[C@@H](O)[C@H](O)[C@H](O)CO` [D-Mannitol] as the compound, how does the Mean % inhibition ([1]; 0.8 mM) read?
A: 59.9 ± 3.6%

Q: What about the Mean % inhibition ([1]; 1 mM) of the same compound?
A: 76.1 ± 14%

Q: And the Mean % inhibition ([1]; 2 mM)?
A: 82.6 ± 14.8%

Q: And the Mean % inhibition ([1]; 4 mM)?
A: 92.6 ± 4.7%

Q: And the Mean % inhibition ([1]; 6 mM)?
A: 95.1 ± 0.3%

Q: What does the source list for `O=C(O)CN(CCN(CC(=O)O)CC(=O)O)CC(=O)O` [EDTA]?
A: Enzyme activity MMP9 [2]: 0 ± 0.9%; Enzyme activity MMP3 [3]: 4.3 ± 5.3%

Q: For `O=C1O[C@H]([C@@H](O)CO)C(O)=C1O` [L-ascorbic acid], which Mean % inhibition ([4]; 10 μmol/L) is on record?
A: 26.4 ± 3.5%

Q: What about the Mean % inhibition ([4]; 20 μmol/L) of the same compound?
A: 43.9 ± 1.4%

Q: And the Mean % inhibition ([4]; 40 μmol/L)?
A: 64.8 ± 0.8%

Q: And the Mean % inhibition ([4]; 60 μmol/L)?
A: 75.3 ± 1%

Q: What about the Mean % inhibition ([4]; 80 μmol/L) of the same compound?
A: 82.4 ± 1.8%

Q: Which “Mean number of cells counted, corrected for the cell division factor” value ([5]; D3, single treatment) does the source give for `C[n+]1ccc(-c2cc[n+](C)cc2)cc1` [Paraquat] here?
A: 405,000 cells

Q: What about the “Mean number of cells counted, corrected for the cell division factor” value ([5]; D7, single treatment) of the same compound?
A: 546,666 cells

Q: What about the “Expression of MMP1” value ([5]; treatment with Paraquat alone) of the same compound?
A: induces

Q: What about the “Expression of p16INK4a” value ([5]; treatment with Paraquat alone) of the same compound?
A: induces
